Test results: patent US20140341818A1, “SOLUBILIZED MAGNOLOL ANALOGS” (COLGATE-PALMOLIVE COMPANY, priority 2011, published 2014)

Experiments:
[1] = format: physicochemical
Text: The dimethyl isosorbide is capable of solubilizing up to 200 g per liter of neat propyl magnolol or isopropyl magnolol, up to 100 g per liter of isobutyl magnolol, or up to 50 g per liter of butyl magnolol. In certain embodiments, the amount of dimethyl isosorbide is at least 5 times the weight of the propyl magnolol or isopropyl magnolol in the composition. In certain embodiments, the amount of dimethyl isosorbide is at least 10 times the weight of isobutyl magnolol in the composition. In certain embodiments, the amount of dimethyl isosorbide is at least 20 times the weight of butyl magnolol in the composition.

[2] = Solubilizing isobutyl magnolol with other solubilizers; format: physicochemical
Text: It was surprising that dimethyl isosorbide was able to solubilize these analogs.

CCCCc1ccc(O)c(-c2cc(CCCC)ccc2O)c1 [butyl magnolol, 5,5′-di-n-butylbiphenyl-2,2′-diol]
amount of neat magnolol analog solubilized by dimethyl isosorbide [1]: up to 50 g per liter

CC(C)Cc1ccc(O)c(-c2cc(CC(C)C)ccc2O)c1 [isobutyl magnolol, 5,5′-di-isobutylbiphenyl-2,2′-diol]
amount of neat magnolol analog solubilized by dimethyl isosorbide [1]: up to 100 g per liter
ability to solubilize ([2]; solubilizer C12-15 alkyl benzoate): not able to solubilize
ability to solubilize ([2]; solubilizer PEG-7 glyceryl cocoate): not able to solubilize
ability to solubilize ([2]; solubilizer PEG-8/SMDI copolymer): not able to solubilize
ability to solubilize ([2]; solubilizer PPG-2 hydroxyethyl cocoamide): not able to solubilize
ability to solubilize ([2]; solubilizer PPG-5 laureth-5 (Eumulgin ES)): not able to solubilize
ability to solubilize ([2]; solubilizer isopropyl myristate): not able to solubilize
ability to solubilize ([2]; solubilizer poloxamer 124): not able to solubilize

CC(C)c1ccc(O)c(-c2cc(C(C)C)ccc2O)c1 [isopropyl magnolol, 5,5′-di-isopropylbiphenyl-2,2′-diol]
amount of neat magnolol analog solubilized by dimethyl isosorbide [1]: up to 200 g per liter

CCCc1ccc(O)c(-c2cc(CCC)ccc2O)c1 [propyl magnolol, 5,5′-di-n-propylbiphenyl-2,2′-diol]
amount of neat magnolol analog solubilized by dimethyl isosorbide [1]: up to 200 g per liter
